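Abbreviation: GI50, concentration required for 50% inhibition of growth. Definition used: TGI = concentration required for complete inhibition of growth.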
Legend:
Assay in all cases: NCI-60 cell line screen, 384-well format
K-562 leukemia = system: K-562 leukemia
HL-60(TB) leukemia = system: HL-60(TB) leukemia
RXF 393 renal = system: RXF 393 renal
NCI/ADR-RES ovarian = system: NCI/ADR-RES ovarian
SW-620 colon = system: SW-620 colon
LOX IMVI melanoma = system: LOX IMVI melanoma
SF-268 CNS = system: SF-268 CNS
SN12C renal = system: SN12C renal
SNB-19 CNS = system: SNB-19 CNS
HCT-116 colon = system: HCT-116 colon
NCI-H460 NSCLC = system: NCI-H460 NSCLC
MOLT-4 leukemia = system: MOLT-4 leukemia
A549 NSCLC = system: A549 NSCLC
NCI-H226 lung = system: NCI-H226 lung
PC-3 prostate = system: PC-3 prostate
MALME-3M melanoma = system: MALME-3M melanoma
OVCAR-8 ovarian = system: OVCAR-8 ovarian
NCI-H522 lung = system: NCI-H522 lung
HCC-2998 colon = system: HCC-2998 colon
COLO 205 colon = system: COLO 205 colon
MDA-MB-468 breast = system: MDA-MB-468 breast
NCI-H322M lung = system: NCI-H322M lung
M14 melanoma = system: M14 melanoma
SF-539 CNS = system: SF-539 CNS
KM12 colon = system: KM12 colon
HOP-92 NSCLC = system: HOP-92 NSCLC
SNB-75 CNS = system: SNB-75 CNS
U251 glioblastoma = system: U251 glioblastoma
UO-31 renal = system: UO-31 renal
SR leukemia = system: SR leukemia
SF-295 CNS = system: SF-295 CNS
BT-549 breast = system: BT-549 breast
SK-OV-3 ovarian = system: SK-OV-3 ovarian
HOP-62 NSCLC = system: HOP-62 NSCLC
SK-MEL-28 melanoma = system: SK-MEL-28 melanoma
T-47D breast = system: T-47D breast
A498 renal = system: A498 renal
CAKI-1 renal = system: CAKI-1 renal
TK-10 renal = system: TK-10 renal
SK-MEL-5 melanoma = system: SK-MEL-5 melanoma
MCF7 breast = system: MCF7 breast
EKVX NSCLC = system: EKVX NSCLC
HCT-15 colon = system: HCT-15 colon
UACC-62 melanoma = system: UACC-62 melanoma
IGROV1 ovarian = system: IGROV1 ovarian
MDA-MB-435 melanoma = system: MDA-MB-435 melanoma
NCI-H23 lung = system: NCI-H23 lung

NC(=O)[C@@H](CC1CC1)[C@@H](CCC(F)(F)F)C(=O)N[C@H]1N=C(c2ccccc2)c2cccc(F)c2NC1=O
GI50 (K-562 leukemia): 7.18 µM
TGI (K-562 leukemia): 62.6 µM
GI50 (HL-60(TB) leukemia): 29.7 µM
TGI (HL-60(TB) leukemia): > 100 µM
GI50 (RXF 393 renal): 7.3 µM
TGI (RXF 393 renal): 22.6 µM
GI50 (NCI/ADR-RES ovarian): > 86.4 µM
TGI (NCI/ADR-RES ovarian): > 100 µM
GI50 (SW-620 colon): 17.7 µM
TGI (SW-620 colon): 35.1 µM
GI50 (LOX IMVI melanoma): 11.7 µM
TGI (LOX IMVI melanoma): 38.4 µM
GI50 (SF-268 CNS): 7.01 µM
TGI (SF-268 CNS): 24.3 µM
GI50 (SN12C renal): 16.2 µM
TGI (SN12C renal): 31.2 µM
GI50 (SNB-19 CNS): 14.7 µM
TGI (SNB-19 CNS): 28.9 µM
GI50 (HCT-116 colon): 10.5 µM
TGI (HCT-116 colon): 26.1 µM
GI50 (NCI-H460 NSCLC): 11.6 µM
TGI (NCI-H460 NSCLC): > 48.4 µM
GI50 (MOLT-4 leukemia): 7.38 µM
TGI (MOLT-4 leukemia): 35 µM
GI50 (A549 NSCLC): 15.7 µM
TGI (A549 NSCLC): 49.4 µM
GI50 (NCI-H226 lung): 16.5 µM
TGI (NCI-H226 lung): 30.5 µM
GI50 (PC-3 prostate): 17.6 µM
TGI (PC-3 prostate): 34.2 µM
GI50 (MALME-3M melanoma): 14.8 µM
TGI (MALME-3M melanoma): 28.2 µM
GI50 (OVCAR-8 ovarian): 16 µM
TGI (OVCAR-8 ovarian): 33.5 µM
GI50 (NCI-H522 lung): 15.2 µM
TGI (NCI-H522 lung): 30.5 µM
GI50 (HCC-2998 colon): 23.8 µM
TGI (HCC-2998 colon): 84.3 µM
GI50 (COLO 205 colon): > 38.8 µM
TGI (COLO 205 colon): > 60.3 µM
TGI (MDA-MB-468 breast): 2.52 µM
GI50 (NCI-H322M lung): 12.4 µM
TGI (NCI-H322M lung): 40.6 µM
GI50 (M14 melanoma): 18.5 µM
TGI (M14 melanoma): 43.3 µM
GI50 (SF-539 CNS): 15.4 µM
TGI (SF-539 CNS): 29 µM
GI50 (KM12 colon): > 51.9 µM
TGI (KM12 colon): > 100 µM
GI50 (HOP-92 NSCLC): 15.5 µM
TGI (HOP-92 NSCLC): 29.6 µM
GI50 (SNB-75 CNS): 10.7 µM
TGI (SNB-75 CNS): 25.4 µM
GI50 (U251 glioblastoma): 17.7 µM
TGI (U251 glioblastoma): 34 µM
GI50 (UO-31 renal): 17.6 µM
TGI (UO-31 renal): 69.1 µM
GI50 (SR leukemia): 13.9 µM
TGI (SR leukemia): 27.1 µM
GI50 (SF-295 CNS): 17.8 µM
TGI (SF-295 CNS): 37.2 µM
GI50 (BT-549 breast): 17.8 µM
TGI (BT-549 breast): 35.2 µM
GI50 (SK-OV-3 ovarian): 14.9 µM
TGI (SK-OV-3 ovarian): 28.5 µM
GI50 (HOP-62 NSCLC): 8.29 µM
TGI (HOP-62 NSCLC): 25 µM
GI50 (SK-MEL-28 melanoma): 17.8 µM
TGI (SK-MEL-28 melanoma): 33.2 µM
GI50 (T-47D breast): 1.94 µM
TGI (T-47D breast): 17.7 µM
GI50 (A498 renal): 15 µM
TGI (A498 renal): 43 µM
GI50 (CAKI-1 renal): 15 µM
TGI (CAKI-1 renal): 36.8 µM
GI50 (TK-10 renal): 16.5 µM
TGI (TK-10 renal): 33 µM
GI50 (SK-MEL-5 melanoma): 9.41 µM
TGI (SK-MEL-5 melanoma): 24.1 µM
GI50 (MCF7 breast): 14.6 µM
TGI (MCF7 breast): 29.1 µM
GI50 (EKVX NSCLC): 7.61 µM
TGI (EKVX NSCLC): 32 µM
GI50 (HCT-15 colon): > 65.9 µM
TGI (HCT-15 colon): > 100 µM
GI50 (UACC-62 melanoma): 14.7 µM
TGI (UACC-62 melanoma): 28.7 µM
GI50 (IGROV1 ovarian): 16.1 µM
TGI (IGROV1 ovarian): 40.4 µM
GI50 (MDA-MB-435 melanoma): 19.2 µM
TGI (MDA-MB-435 melanoma): 43.7 µM
GI50 (NCI-H23 lung): 9.77 µM
TGI (NCI-H23 lung): 30 µM
